From ChEMBL document CHEMBL1201862, “PubChem BioAssay data set” (2004)
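Interpolation was linear, between the two tested concentrations surrounding the appropriate level; five concentrations were tested over 48 hours in 96-well plates. GI50 is the concentration that inhibits growth by half.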 Activity calls are given as the source filed them. Rule as the data show it: active = GI50 up to about 1.1 µM and inactive = higher.

How the values were obtained:
Assay in all cases: inhibition of tumour cell growth, NCI panel, 48 h
786-0 = system: 786-0
A498 = system: A498
A549 = system: A549
ACHN = system: ACHN
BT-549 = system: BT-549
CAKI-1 = system: CAKI-1
CCRF-CEM = system: CCRF-CEM
COLO 205 = system: COLO 205
DU-145 = system: DU-145
EKVX = system: EKVX
HCC 2998 = system: HCC 2998
HCT-116 = system: HCT-116
HCT-15 = system: HCT-15
HL-60 = system: HL-60
HOP-62 = system: HOP-62
HOP-92 = system: HOP-92
HT-29 = system: HT-29
Hs-578T = system: Hs-578T
IGROV-1 = system: IGROV-1
K562 = system: K562
KM12 = system: KM12
M14 = system: M14
MCF7 = system: MCF7
MDA-MB-231 = system: MDA-MB-231
MDA-MB-435 = system: MDA-MB-435
MDA-N = system: MDA-N
MOLT-4 = system: MOLT-4
Malme-3M = system: Malme-3M
NCI-H226 = system: NCI-H226
NCI-H23 = system: NCI-H23
NCI-H460 = system: NCI-H460
NCI-H522 = system: NCI-H522
NCI/ADR-RES = system: NCI/ADR-RES
OVCAR-3 = system: OVCAR-3
OVCAR-4 = system: OVCAR-4
OVCAR-5 = system: OVCAR-5
OVCAR-8 = system: OVCAR-8
PC-3 = system: PC-3
RPMI-8226 = system: RPMI-8226
RXF 393 = system: RXF 393
SF-268 = system: SF-268
SF-295 = system: SF-295
SF-539 = system: SF-539
SK-MEL-28 = system: SK-MEL-28
SK-MEL-2 = system: SK-MEL-2
SK-MEL-5 = system: SK-MEL-5
SK-OV-3 = system: SK-OV-3
SN12C = system: SN12C
SNB-19 = system: SNB-19
SNB-75 = system: SNB-75
SR = system: SR
SW-620 = system: SW-620
T47D = system: T47D
TK-10 = system: TK-10
U-251 = system: U-251
UACC-257 = system: UACC-257
UACC-62 = system: UACC-62
UO-31 = system: UO-31
LOX IMVI = system: LOX IMVI

Q: For `COc1cc(C)cc2c(-c3c(O)cc(O)c4c3C[C@H](C)N[C@H]4C)cc(-c3cc(-c4c(O)cc(O)c5c4C[C@H](C)N[C@H]5C)c4cc(C)cc(OC)c4c3O)c(O)c12`, which GI50 (786-0) is on record?
A: 26.9 µM (inactive)

Q: And the GI50 (A498)?
A: > 100 µM (inactive)

Q: What about the GI50 (A549) of the same compound?
A: > 100 µM (inactive)

Q: And the GI50 (ACHN)?
A: > 100 µM (inactive)

Q: What about the GI50 (BT-549) of the same compound?
A: > 100 µM (inactive)

Q: What about the GI50 (CAKI-1) of the same compound?
A: > 100 µM (inactive)

Q: And the GI50 (CCRF-CEM)?
A: > 100 µM (inactive)

Q: And the GI50 (COLO 205)?
A: > 100 µM (inactive)

Q: And the GI50 (DU-145)?
A: > 100 µM (inactive)

Q: And the GI50 (EKVX)?
A: > 100 µM (inactive)

Q: And the GI50 (HCC 2998)?
A: > 100 µM (inactive)

Q: What about the GI50 (HCT-116) of the same compound?
A: 54.1 µM (inactive)

Q: And the GI50 (HCT-15)?
A: > 100 µM

Q: What about the GI50 (HL-60) of the same compound?
A: > 100 µM (inactive)

Q: What about the GI50 (HOP-62) of the same compound?
A: 72.3 µM (inactive)

Q: And the GI50 (HOP-92)?
A: > 100 µM (inactive)

Q: What about the GI50 (HT-29) of the same compound?
A: 36 µM (inactive)

Q: What about the GI50 (Hs-578T) of the same compound?
A: > 100 µM (inactive)

Q: And the GI50 (IGROV-1)?
A: > 100 µM (inactive)

Q: What about the GI50 (K562) of the same compound?
A: > 100 µM (inactive)

Q: What about the GI50 (KM12) of the same compound?
A: 56.2 µM (inactive)

Q: And the GI50 (M14)?
A: > 100 µM (inactive)

Q: And the GI50 (MCF7)?
A: > 100 µM (inactive)

Q: And the GI50 (MDA-MB-231)?
A: > 100 µM (inactive)

Q: What about the GI50 (MDA-MB-435) of the same compound?
A: 54.3 µM (inactive)

Q: What about the GI50 (MDA-N) of the same compound?
A: 52 µM (inactive)

Q: What about the GI50 (MOLT-4) of the same compound?
A: > 100 µM (inactive)

Q: What about the GI50 (Malme-3M) of the same compound?
A: > 100 µM (inactive)

Q: What about the GI50 (NCI-H226) of the same compound?
A: > 100 µM (inactive)

Q: What about the GI50 (NCI-H23) of the same compound?
A: > 100 µM (inactive)

Q: What about the GI50 (NCI-H460) of the same compound?
A: 75.3 µM (inactive)

Q: And the GI50 (NCI-H522)?
A: > 100 µM (inactive)

Q: And the GI50 (NCI/ADR-RES)?
A: > 100 µM (inactive)

Q: What about the GI50 (OVCAR-3) of the same compound?
A: > 100 µM (inactive)

Q: And the GI50 (OVCAR-4)?
A: > 100 µM (inactive)

Q: And the GI50 (OVCAR-5)?
A: 21.4 µM (inactive)

Q: What about the GI50 (OVCAR-8) of the same compound?
A: > 100 µM (inactive)

Q: And the GI50 (PC-3)?
A: > 100 µM (inactive)

Q: What about the GI50 (RPMI-8226) of the same compound?
A: 83.4 µM (inactive)

Q: What about the GI50 (RXF 393) of the same compound?
A: > 100 µM (inactive)

Q: What about the GI50 (SF-268) of the same compound?
A: > 100 µM (inactive)

Q: What about the GI50 (SF-295) of the same compound?
A: 66.4 µM (inactive)

Q: What about the GI50 (SF-539) of the same compound?
A: > 100 µM (inactive)

Q: And the GI50 (SK-MEL-28)?
A: > 100 µM (inactive)

Q: And the GI50 (SK-MEL-2)?
A: > 100 µM (inactive)

Q: And the GI50 (SK-MEL-5)?
A: > 100 µM (inactive)

Q: What about the GI50 (SK-OV-3) of the same compound?
A: > 100 µM (inactive)

Q: And the GI50 (SN12C)?
A: > 100 µM (inactive)

Q: And the GI50 (SNB-19)?
A: > 100 µM (inactive)

Q: What about the GI50 (SNB-75) of the same compound?
A: > 100 µM (inactive)

Q: What about the GI50 (SR) of the same compound?
A: > 100 µM (inactive)

Q: What about the GI50 (SW-620) of the same compound?
A: > 100 µM (inactive)

Q: What about the GI50 (T47D) of the same compound?
A: 63.8 µM (inactive)

Q: What about the GI50 (TK-10) of the same compound?
A: > 100 µM (inactive)

Q: And the GI50 (U-251)?
A: > 100 µM (inactive)

Q: And the GI50 (UACC-257)?
A: > 100 µM (inactive)

Q: And the GI50 (UACC-62)?
A: > 100 µM (inactive)

Q: And the GI50 (UO-31)?
A: > 100 µM (inactive)

Q: For `N#CCCN(CCC#N)CCN(CCN(CCC#N)CCC#N)CCN(CCC#N)CCC#N`, which GI50 (786-0) is on record?
A: > 100 µM (inactive)

Q: What about the GI50 (A498) of the same compound?
A: > 100 µM (inactive)

Q: And the GI50 (A549)?
A: > 100 µM (inactive)

Q: And the GI50 (ACHN)?
A: > 100 µM (inactive)

Q: And the GI50 (BT-549)?
A: > 100 µM (inactive)

Q: And the GI50 (CAKI-1)?
A: > 100 µM (inactive)

Q: And the GI50 (COLO 205)?
A: > 100 µM (inactive)

Q: What about the GI50 (DU-145) of the same compound?
A: > 100 µM (inactive)

Q: And the GI50 (EKVX)?
A: > 100 µM (inactive)

Q: What about the GI50 (HCC 2998) of the same compound?
A: > 100 µM (inactive)

Q: And the GI50 (HCT-116)?
A: > 100 µM (inactive)

Q: And the GI50 (HCT-15)?
A: > 100 µM

Q: And the GI50 (HL-60)?
A: > 100 µM (inactive)

Q: And the GI50 (HOP-62)?
A: > 100 µM (inactive)

Q: And the GI50 (HOP-92)?
A: > 100 µM (inactive)

Q: What about the GI50 (HT-29) of the same compound?
A: > 100 µM (inactive)

Q: And the GI50 (Hs-578T)?
A: > 100 µM (inactive)

Q: What about the GI50 (IGROV-1) of the same compound?
A: > 100 µM (inactive)

Q: And the GI50 (K562)?
A: > 100 µM (inactive)

Q: What about the GI50 (LOX IMVI) of the same compound?
A: > 100 µM (inactive)

Q: What about the GI50 (M14) of the same compound?
A: > 100 µM (inactive)

Q: What about the GI50 (MCF7) of the same compound?
A: > 100 µM (inactive)

Q: What about the GI50 (MDA-MB-231) of the same compound?
A: > 100 µM (inactive)

Q: What about the GI50 (MDA-MB-435) of the same compound?
A: > 100 µM (inactive)

Q: What about the GI50 (MDA-N) of the same compound?
A: > 100 µM (inactive)

Q: What about the GI50 (MOLT-4) of the same compound?
A: > 100 µM (inactive)

Q: What about the GI50 (Malme-3M) of the same compound?
A: > 100 µM (inactive)

Q: And the GI50 (NCI-H226)?
A: > 100 µM (inactive)

Q: What about the GI50 (NCI-H23) of the same compound?
A: > 100 µM (inactive)

Q: And the GI50 (NCI-H460)?
A: > 100 µM (inactive)

Q: And the GI50 (NCI-H522)?
A: > 100 µM (inactive)

Q: And the GI50 (NCI/ADR-RES)?
A: > 100 µM (inactive)

Q: And the GI50 (OVCAR-3)?
A: > 100 µM (inactive)

Q: And the GI50 (OVCAR-4)?
A: > 100 µM (inactive)

Q: And the GI50 (OVCAR-5)?
A: > 100 µM (inactive)

Q: What about the GI50 (OVCAR-8) of the same compound?
A: > 100 µM (inactive)

Q: And the GI50 (PC-3)?
A: > 100 µM (inactive)

Q: And the GI50 (RPMI-8226)?
A: > 100 µM (inactive)

Q: And the GI50 (RXF 393)?
A: > 100 µM (inactive)

Q: What about the GI50 (SF-268) of the same compound?
A: > 100 µM (inactive)

Q: What about the GI50 (SF-295) of the same compound?
A: > 100 µM (inactive)

Q: And the GI50 (SF-539)?
A: > 100 µM (inactive)

Q: And the GI50 (SK-MEL-28)?
A: > 100 µM (inactive)

Q: What about the GI50 (SK-MEL-2) of the same compound?
A: > 100 µM (inactive)

Q: And the GI50 (SK-MEL-5)?
A: > 100 µM (inactive)

Q: And the GI50 (SK-OV-3)?
A: > 100 µM (inactive)

Q: And the GI50 (SN12C)?
A: > 100 µM (inactive)

Q: What about the GI50 (SNB-19) of the same compound?
A: > 100 µM (inactive)

Q: What about the GI50 (SNB-75) of the same compound?
A: > 100 µM (inactive)

Q: And the GI50 (SR)?
A: > 100 µM (inactive)

Q: What about the GI50 (SW-620) of the same compound?
A: > 100 µM (inactive)

Q: What about the GI50 (T47D) of the same compound?
A: > 100 µM (inactive)

Q: What about the GI50 (TK-10) of the same compound?
A: > 100 µM (inactive)

Q: And the GI50 (U-251)?
A: > 100 µM (inactive)

Q: And the GI50 (UACC-257)?
A: > 100 µM (inactive)

Q: And the GI50 (UO-31)?
A: > 100 µM (inactive)
